Assay results: paper PMC7932537, “Quantitative profiling of protease specificity” (PLoS Computational Biology, 2021)

Tests used:
MMP-2 = experiment: Substrate phage display with NGS: relative probability (RP) of P3-P1' tetramer clusters; format: biochemical, human; conditions: for relative probability (RP) of matching tetramer: P3-P1' tetramer matching the MS detected MMP2 cleavage sequence, RP_above_4.5; for corresponding MMP2 relative probability (RP): MMP9 tetramers from unique substrates, RP of same tetramer for MMP2; for MMP2 relative probability (RP): MMP2 tetramers from unique substrates, unrounded values
MMP-9 = experiment: as above; format: biochemical, human; conditions: for MMP9 relative probability (RP): MMP9 tetramers from unique substrates, unrounded values; for corresponding MMP9 relative probability (RP): MMP2 tetramers from unique substrates, RP of same tetramer for MMP9
[1] = RP of the P3-P1' tetramer cluster contained in the hexamer, 200 nM MMP-2, 2 h, 37°C, two rounds of selection
[2] = MMP9, RP of the P3-P1' tetramer contained in the hexamer substrate (substrate phage display, NGS)
[3] = RP of the P3-P1' tetramer, MMP2 substrate phage display/NGS, tetramers of physiologic MEROPS substrates common to MMP2 and MMP9
[4] = RP of the P3-P1' tetramer, MMP9 substrate phage display/NGS, tetramers of physiologic MEROPS substrates common to MMP2 and MMP9
[5] = MMP2, RP of matching P3-P1' tetramer, common set of MMP2-9 selectome, RP above KL threshold
[6] = RP of matching tetramer, common MMP2-9 selectome
[7] = MMP9, RP of matching P3-P1' tetramer, common set of MMP2-9 selectome
[8] = MMP9, RP of the P3-P1' tetramer matching the MS detected cleavage, RP above 4.7, substrate phage display with NGS
[9] = RP of matching tetramer, common MMP2-9 selectome, RP above KL threshold
[10] = RP according to MMP2, P3-P1' tetramer of unique physiologic MMP2 substrates from MEROPS
[11] = RP according to MMP9, P3-P1' tetramer of unique physiologic MMP9 substrates from MEROPS

AHNLSS
relative probability (RP) (MMP-2; [1]): 23.7113 | relative probability (RP) (MMP-9; [2]): 29.6602

AIHI
relative probability (RP) (acc.to MMP2) (MMP-2; [3]): 4.71 | relative probability (RP) (acc.to MMP9) (MMP-9; [4]): 5.64

AINI
relative probability (RP) (acc.to MMP2) (MMP-2; [5]): 8.5 | relative probability (RP) of matching tetramer (MMP-2): 8.5 | relative probability (RP) (acc.to MMP2) (MMP-2; [6]): 8.5 | relative probability (RP) (acc.to MMP9) (MMP-9; [7]): 14.08 | relative probability (RP) (MMP-9; [8]): 14.08 | relative probability (RP) (acc.to MMP9) (MMP-9; [9]): 14.08

AKAL
relative probability (RP) (acc.to MMP2) (MMP-2; [5]): 22.96 | relative probability (RP) of matching tetramer (MMP-2): 22.96 | relative probability (RP) (acc.to MMP2) (MMP-2; [6]): 22.96 | relative probability (RP) (acc.to MMP9) (MMP-9; [7]): 37.29 | relative probability (RP) (MMP-9; [8]): 37.29 | relative probability (RP) (acc.to MMP9) (MMP-9; [9]): 37.29

AKAQ
corresponding MMP2 relative probability (RP) (MMP-2): 5.884 | MMP9 relative probability (RP) (MMP-9): 0.8414

AKNL
relative probability (RP) (acc.to MMP2) (MMP-2; [5]): 16.7 | relative probability (RP) of matching tetramer (MMP-2): 16.7 | relative probability (RP) (acc.to MMP2) (MMP-2; [6]): 16.7 | relative probability (RP) (acc.to MMP9) (MMP-9; [7]): 32.82 | relative probability (RP) (MMP-9; [8]): 32.82 | relative probability (RP) (acc.to MMP9) (MMP-9; [9]): 32.82

ALYL
corresponding MMP2 relative probability (RP) (MMP-2): 5.662 | MMP9 relative probability (RP) (MMP-9): 1.807

AMFL
corresponding MMP2 relative probability (RP) (MMP-2): 15.1166 | MMP9 relative probability (RP) (MMP-9): 1.089

AMPM
relative probability (RP) (acc.to MMP2) (MMP-2; [5]): 8.51 | relative probability (RP) of matching tetramer (MMP-2): 8.51 | relative probability (RP) (acc.to MMP2) (MMP-2; [6]): 8.51 | relative probability (RP) (acc.to MMP9) (MMP-9; [7]): 26.95 | relative probability (RP) (MMP-9; [8]): 26.95 | relative probability (RP) (acc.to MMP9) (MMP-9; [9]): 26.95

ANPV
relative probability (RP) (acc.to MMP2) (MMP-2; [3]): 0.04 | relative probability (RP) (acc.to MMP9) (MMP-9; [4]): 0.33

APALWI
relative probability (RP) (MMP-2; [1]): 24.3606 | relative probability (RP) (MMP-9; [2]): 27.3829

APGF
relative probability (RP) (acc.to MMP2) (MMP-2; [3]): 0.64 | relative probability (RP) (acc.to MMP9) (MMP-9; [4]): 0.56

APGL
MMP2 relative probability (RP) (MMP-2): 7.849 | Relative probability (RP) rank (MMP-2; [10]): 5899 | relative probability (RP) (MMP-2; [10]): 7.85 | relative probability (RP) (acc.to MMP2) (MMP-2; [3]): 7.85 | corresponding MMP9 relative probability (RP) (MMP-9): 3.776 | Relative probability (RP) rank (MMP-9; [11]): 6833 | relative probability (RP) (MMP-9; [11]): 3.78 | relative probability (RP) (acc.to MMP9) (MMP-9; [4]): 3.78

APGN
relative probability (RP) (acc.to MMP2) (MMP-2; [3]): 3.62 | relative probability (RP) (acc.to MMP9) (MMP-9; [4]): 2.38

ARAY
relative probability (RP) (acc.to MMP2) (MMP-2; [5]): 20.14 | relative probability (RP) of matching tetramer (MMP-2): 20.14 | relative probability (RP) (acc.to MMP2) (MMP-2; [6]): 20.14 | relative probability (RP) (acc.to MMP9) (MMP-9; [7]): 36.14 | relative probability (RP) (MMP-9; [8]): 36.14 | relative probability (RP) (acc.to MMP9) (MMP-9; [9]): 36.14

ARGI
avg_RP (MMP-2; MMP2 - no binning, average relative probability (RP) of the P3-P1' tetramer, redundant tetramers have been averaged out): 21.2616 | relative probability (RP) (acc.to MMP2) (MMP-2; [6]): 21.26 | relative probability (RP) (MMP-9; [8]): 31.4 | relative probability (RP) (acc.to MMP9) (MMP-9; [9]): 31.4

ARHYKS
relative probability (RP) (MMP-2; [1]): 10.2998 | relative probability (RP) (MMP-9; [2]): 23.6532

ASDY
relative probability (RP) (acc.to MMP2) (MMP-2; [3]): 0.78 | relative probability (RP) (acc.to MMP9) (MMP-9; [4]): 0.38

ATPY
relative probability (RP) (acc.to MMP2) (MMP-2; [5]): 12.49 | relative probability (RP) of matching tetramer (MMP-2): 12.49 | relative probability (RP) (acc.to MMP2) (MMP-2; [6]): 12.49 | relative probability (RP) (acc.to MMP9) (MMP-9; [7]): 9.04 | relative probability (RP) (MMP-9; [8]): 9.04 | relative probability (RP) (acc.to MMP9) (MMP-9; [9]): 9.04

DGPVSF
relative probability (RP) (MMP-2; [1]): 24.4524 | relative probability (RP) (MMP-9; [2]): 25.1636

DSPQNL
relative probability (RP) (MMP-2; [1]): 32.7851 | relative probability (RP) (MMP-9; [2]): 46.8593

EGPAGL
relative probability (RP) (MMP-2; [1]): 36.0156 | relative probability (RP) (MMP-9; [2]): 47.2274

EMRL
corresponding MMP2 relative probability (RP) (MMP-2): 11.559 | MMP9 relative probability (RP) (MMP-9): 0.2922

EPKPLL
relative probability (RP) (MMP-2; [1]): 33.5622 | relative probability (RP) (MMP-9; [2]): 48.2599

EPVSLA
relative probability (RP) (MMP-2; [1]): 32.502 | relative probability (RP) (MMP-9; [2]): 42.3557

ETPRPW
relative probability (RP) (MMP-2; [1]): 32.1109 | relative probability (RP) (MMP-9; [2]): 41.1124

EVPQAL
relative probability (RP) (MMP-2; [1]): 34.4508 | relative probability (RP) (MMP-9; [2]): 48.457

FKNI
relative probability (RP) (acc.to MMP2) (MMP-2; [3]): 0.14 | relative probability (RP) (acc.to MMP9) (MMP-9; [4]): 0.09

FSPL
MMP2 relative probability (RP) (MMP-2): 14.7799 | Relative probability (RP) rank (MMP-2; [10]): 3161 | relative probability (RP) (MMP-2; [10]): 14.78 | corresponding MMP9 relative probability (RP) (MMP-9): 1.083

GEPFEL
relative probability (RP) (MMP-2; [1]): 15.9169 | relative probability (RP) (MMP-9; [2]): 44.9497

GEPRGQ
relative probability (RP) (MMP-2; [1]): 29.4864 | relative probability (RP) (MMP-9; [2]): 42.1179

GKPVSM
relative probability (RP) (MMP-2; [1]): 30.0644 | relative probability (RP) (MMP-9; [2]): 41.2029
